Test results: patent US8580782B2, “Substituted pyrazolo[1,5-a]pyrimidines as cyclin dependent kinase inhibitors” (Merck Sharp & Dohme Corp., priority 2002, dated 2013)

Each compound was assayed against CDK2 (cyclin A or cyclin E complex) (Homo sapiens (Human), UniProt P24941) (assay: CDK2 in vitro kinase assay (either cyclin A or E-dependent), SPA with biotinylated Histone H1 peptide and 33P-ATP). Conditions: Table 87.
Format: biochemical
Text: Assay: • Baculovirus Constructions: Cyclins A and E were cloned into pFASTBAC (Invitrogen) by PCR, with the addition of a GluTAG sequence (EYMPME) at the amino-terminal end to allow purification on anti-GluTAG affinity columns. The expressed proteins were approximately 46 kDa (cyclin E) and 50 kDa (cyclin A) in size. CDK2 was also cloned into pFASTBAC by PCR, with the addition of a haemaglutinin epitope tag at the carboxy-terminal end ([sequence]). The expressed protein was approximately 34 kDa in size. • Enzyme Production: Recombinant baculoviruses expressing cyclins A, E and CDK2 were infected into SF9 cells at a multiplicity of infection (MOI) of 5, for 48 hrs. Cells were harvested by centrifugation at 1000 RPM for 10 minutes. Cyclin-containing (E or A) pellets were combined with CDK2 containing cell pellets and lysed on ice for 30 minutes in five times the pellet volume of lysis buffer containing 50 mM Tris pH 8.0, 0.5% NP40, 1 mM DTT and protease/phosphatase inhibitors (Roche Diagnostics GmbH, Mannheim, Germany). Mixtures were stirred for 30-60 minutes to promote cyclin-CDK2 complex formation. Mixed lysates were then spun down at 15000 RPM for 10 minutes and the supernatant retained. 5 ml of anti-GluTAG beads (for one liter of SF9 cells) were then used to capture cyclin-CDK2 complexes. Bound beads were washed three times in lysis buffer. Proteins were competitively eluted with lysis buffer containing 100-200 ug/mL of the GluTAG peptide. Eluate was dialyzed overnight in 2 liters of kinase buffer containing 50 mM Tris pH 8.0, 1 mM DTT, 10 mM MgCl2, 100 uM sodium orthovanadate and 20% glycerol. Enzyme was stored in aliquots at −70° C. • In Vitro Kinase Assay: CDK2 kinase assays (either cyclin A or E-dependent) were performed in low protein binding 96-well plates (Corning Inc, Corning, N.Y.). Enzyme was diluted to a final concentration of 50 μg/ml in kinase buffer containing 50 mM Tris pH 8.0, 10 mM MgCl2, 1 mM DTT, and 0.1 mM sodium orthovanadate. The substrate used in these reactions was a biotinylated peptide derived from Histone H1 (from Amersham, UK). The substrate was thawed on ice and diluted to 2 μM in kinase buffer. Compounds were diluted in 10% DMSO to desirable concentrations. For each kinase reaction, 20 μl of the 50 μg/ml enzyme solution (1 μg of enzyme) and 20 μl of the 1 μM substrate solution were mixed, then combined with 10 μl of diluted compound in each well for testing. […] The reaction was allowed to run for 1 hour at room temperature. The reaction was stopped by adding 200 μl of stop buffer containing 0.1% Triton X-100, 1 mM ATP, 5 mM EDTA, and 5 mg/ml streptavidine coated SPA beads (from Amersham, UK) for 15 minutes. The SPA beads were then captured onto a 96-well GF/B filter plate (Packard/Perkin Elmer Life Sciences) using a Filtermate universal harvester (Packard/Perkin Elmer Life Sciences.). Non-specific signals were eliminated by washing the beads twice with 2M NaCl then twice with 2 M NaCl with 1% phosphoric acid. The radioactive signal was then measured using a TopCount 96 well liquid scintillation counter (from Packard/Perkin Elmer Life Sciences). • IC50 Determination: Dose-response curves were plotted from inhibition data generated, each in duplicate, from 8 point serial dilutions of inhibitory compounds. Concentration of compound was plotted against % kinase activity, calculated by CPM of treated samples divided by CPM of untreated samples. To generate IC50 values, the dose-response curves were then fitted to a standard sigmoidal curve and IC50 values were derived by nonlinear regression analysis. These kinase activities were generated by using cyclin A or cyclin E using the above-described assay.
For `Fc1ccccc1-c1cc(NCc2cccnc2)n2ncc(Br)c2n1` [Example 4], the IC50 was 11 nM. `Fc1ccccc1-c1cc(NCc2cccnc2)n2ncc(Cl)c2n1` [Example 5] was tested, and the IC50 was 21 nM. `Clc1ccccc1-c1cc(NCc2cccnc2)n2ncc(Br)c2n1` [Example 8] gave an IC50 of 3 nM. Compound `CC(C)c1cc(NCc2ccncc2)n2ncc(Br)c2n1` [Example 10] has an IC50 of 42 nM. Compound `CC(C)(C)c1cc(NCc2ccncc2)n2ncc(Br)c2n1` [Example 12] has an IC50 of 170 nM. In the case of `N#Cc1cnn2c(NCc3ccncc3)cc(-c3ccccc3)nc12` [Example 16], the IC50 is reported as 620 nM.
